The source of these data is article PMC13258496, “Synthesis of Methoxylated Benzoxanthones as Drug Metabolites of Antischistosomal Schistodiones—A Limited Environmental Risk” (Molecules, 2026).

In this test the test system is S. aureus. Kind of test: Primary antibacterial screening. It is filed as cell-based. As to conditions: Staphylococcus aureus. The procedure: The cytotoxicity of the same compounds was evaluated against human fibroblasts (hMRC-5) and mouse macrophages (PMM). All assays were carried out with parent benzylMD (PD, SD-A2′,5′, SD-A3′,5′) and control drug references.
The primary in vitro evaluation of test compounds at LMPH is performed against a broad panel of pathogens to allow proper evaluation of selectivity. Compound stock solutions are prepared in 100% DMSO at 20 mM. The compounds are serially pre-diluted (two-fold or four-fold) in DMSO followed by a further (intermediate) dilution in demineralized water to assure a final in-test DMSO concentration of <1%.

Structures are written as SMILES.

For orientation: IC50 means the point on the concentration scale where inhibition reaches its midpoint. The low end stands for inhibition by little substance, the high end for a need for much substance.

On to `CC[C@H]1OC(=O)[C@H](C)[C@@H](O[C@H]2C[C@@](C)(OC)[C@@H](O)[C@H](C)O2)[C@H](C)[C@@H](O[C@@H]2O[C@H](C)C[C@H](N(C)C)[C@H]2O)[C@](C)(O)C[C@@H](C)C(=O)[C@H](C)[C@@H](O)[C@]1(C)O` [Erythromycin], for which the 50% inhibitory concentration (IC50) stood at 11.3 µM.
